Results: patent publication US12644142B2, “Sugar composition containing cyclic tetrasaccharide, use thereof, and production method therefor” (NAGASE VIITA CO., LTD., priority 2019, dated 2026)

Columns and labels:
[1] = purity of 98% by mass, aqueous solution with a solid concentration of 50% by mass; cited from earlier work
[2] = Preliminary evaluation of digestion and absorption after oral ingestion; assay type: in vivo; conditions: orally ingested into a human body

## OC[C@H]1O[C@@H]2OC[C@H]3O[C@H](O[C@@H]4[C@@H](O)[C@@H](OC[C@H]5O[C@H](O[C@H]([C@H]2O)[C@@H]1O)[C@H](O)[C@@H](O)[C@@H]5O)O[C@H](CO)[C@H]4O)[C@H](O)[C@@H](O)[C@@H]3O [cyclic tetrasaccharide, cyclo{→6)-α-D-glucopyranosyl-(1→3)-α-D-glucopyranosyl-(1→6)-α-D-glucopyranosyl-(1→3)-α-D-glucopyranosyl-(1→}]
[1]
  precipitation of crystals: easily causes precipitation of crystals
[2]
  digestion and absorption after oral ingestion: reaches the large intestine without being digested or absorbed
